For this series, the system named is rodent lifetime carcinogenesis bioassay, tumor incidence TD50. The series is described as follows: chronic cancer bioassays in animals – CPDB, compiled studies (AID 1745844).

Where “and” joins values, the source holds several entries; their conditions need not be identical. Equal values may be shown once. Calls of active or inactive are those of the source. How the calls were made is not given here.

Take `CCOC(=O)[C@H](CCc1ccccc1)N[C@@H](C)C(=O)N1Cc2ccccc2C[C@H]1C(=O)O`: the TD50 (commonly the 50% point of the dose-response relation for the toxic effect studied) was 8160 mg/kg/day (inactive) (mouse, strain B6C3F1, females, by gavage, site: any site (literature study), lesion: several types, types named in the paper, dosed 104 weeks, study length 104 weeks); 966 mg/kg/day (inactive) (mouse, strain B6C3F1, females, by gavage, site: liver, lesion: hepatocellular carcinoma, dosed 104 weeks, study length 104 weeks); 5070 mg/kg/day (inactive) (mouse, strain B6C3F1, females, by gavage, site: lung, lesion: adenoma, dosed 104 weeks, study length 104 weeks); 128 mg/kg/day (inactive) (mouse, strain B6C3F1, females, by gavage, site: pituitary gland, lesion: adenoma, dosed 104 weeks, study length 104 weeks); 221 mg/kg/day (inactive) (mouse, strain B6C3F1, males, by gavage, site: any site (literature study), lesion: several types, types named in the paper, dosed 104 weeks, study length 104 weeks); 623 mg/kg/day (inactive) (mouse, strain B6C3F1, males, by gavage, site: liver, lesion: hepatocellular adenoma, dosed 104 weeks, study length 104 weeks). The TD50 is 1640 mg/kg/day (inactive) (mouse, strain B6C3F1, males, by gavage, site: liver, lesion: hepatocellular carcinoma, dosed 104 weeks, study length 104 weeks); 2790 mg/kg/day (inactive) (mouse, strain B6C3F1, males, by gavage, site: lung, lesion: adenoma, dosed 104 weeks, study length 104 weeks); 2810 mg/kg/day (inactive) (mouse, strain B6C3F1, males, by gavage, site: lung, lesion: carcinoma, dosed 104 weeks, study length 104 weeks). In addition, the carcinogen call (mouse, strain B6C3F1, females, by gavage, site: liver, lesion: hepatocellular adenoma, dosed 104 weeks, study length 104 weeks) was “negative (inactive)”; the carcinogen call (rat, strain Wistar, females, by gavage, site: any site (literature study), lesion: several types, types named in the paper, dosed 104 weeks, study length 104 weeks) is “negative (inactive)”; the carcinogen call (rat, strain Wistar, females, by gavage, site: liver, lesion: several types, types named in the paper, dosed 104 weeks, study length 104 weeks) is “negative (inactive)”; the carcinogen call (rat, strain Wistar, males, by gavage, site: any site (literature study), lesion: several types, types named in the paper, dosed 104 weeks, study length 104 weeks) was “negative (inactive)”; the carcinogen call (rat, strain Wistar, males, by gavage, site: liver, lesion: several types, types named in the paper, dosed 104 weeks, study length 104 weeks) was “negative (inactive)”.
As to `CN(N=O)c1ccccn1`, the TD50 was 3.05 mg/kg/day (rat, strain BD VI, females, by gavage, site: any site (literature study), lesion: benign tumor, dosed 72 weeks, study length 72 weeks); 0.668 mg/kg/day (rat, strain BD VI, females, by gavage, site: any site (literature study), lesion: malignant tumor, dosed 72 weeks, study length 72 weeks); 0.28 mg/kg/day (rat, strain BD VI, females, by gavage, site: any site (literature study), lesion: several types, types named in the paper, dosed 72 weeks, study length 72 weeks); 0.214 mg/kg/day (rat, strain BD VI, females, by gavage, site: esophagus, lesion: several types, types named in the paper, dosed 72 weeks, study length 72 weeks).
With `[N]=O`, the carcinogen call (mouse, strain ICR/Jcl, females, inhaled, site: lung, lesion: adenoma, dosed 126 weeks, study length 126 weeks) is “negative (inactive)”.
With `COC(=O)C1=C(C)NC(C)=C(C(=O)OCCc2ccc(N3CCN(C(c4ccccc4)c4ccccc4)CC3)cc2)C1c1cccc([N+](=O)[O-])c1` (stereo not drawn), the TD50 was 293 mg/kg/day (inactive) (mouse, strain B6C3F1, females, in feed, site: any site (literature study), lesion: several types, types named in the paper, dosed 78 weeks, study length 78 weeks); 714 mg/kg/day (inactive) (mouse, strain B6C3F1, females, in feed, site: liver, lesion: hepatocellular adenoma, dosed 78 weeks, study length 78 weeks); 243 mg/kg/day (inactive) (mouse, strain B6C3F1, females, in feed, site: lung, lesion: alveolar/bronchiolar adenoma, dosed 78 weeks, study length 78 weeks); 898 mg/kg/day (inactive) (mouse, strain B6C3F1, males, in feed, site: liver, lesion: hepatocellular carcinoma, dosed 78 weeks, study length 78 weeks); 46.1 mg/kg/day (inactive) (rat, strain F344/DuCrj, females, in feed, site: any site (literature study), lesion: several types, types named in the paper, dosed 104 weeks, study length 104 weeks); 509 mg/kg/day (inactive) (rat, strain F344/DuCrj, females, in feed, site: liver, lesion: hepatocellular adenoma, dosed 104 weeks, study length 104 weeks). The carcinogen call (mouse, strain B6C3F1, females, in feed, site: lung, lesion: adenocarcinoma, dosed 78 weeks, study length 78 weeks) is “negative (inactive)”; the carcinogen call (mouse, strain B6C3F1, males, in feed, site: any site (literature study), lesion: several types, types named in the paper, dosed 78 weeks, study length 78 weeks) is “negative (inactive)”; the carcinogen call (mouse, strain B6C3F1, males, in feed, site: liver, lesion: hepatocellular adenoma, dosed 78 weeks, study length 78 weeks) was “negative (inactive)”; the carcinogen call (mouse, strain B6C3F1, males, in feed, site: lung, lesion: adenocarcinoma, dosed 78 weeks, study length 78 weeks) was “negative (inactive)”; the carcinogen call (mouse, strain B6C3F1, males, in feed, site: lung, lesion: alveolar/bronchiolar adenoma, dosed 78 weeks, study length 78 weeks) was “negative (inactive)”; the carcinogen call (rat, strain F344/DuCrj, males, in feed, site: any site (literature study), lesion: several types, types named in the paper, dosed 104 weeks, study length 104 weeks) was “negative (inactive)”. The carcinogen call (rat, strain F344/DuCrj, males, in feed, site: liver, lesion: hepatocellular adenoma, dosed 104 weeks, study length 104 weeks) is “negative (inactive)”.
In the case of `NNc1ccccc1`, the TD50 runs as follows: (mouse, strain Swiss albino, females, in drinking water, site: blood vessels, lesion: angioma, dosed 112 weeks, study length 112 weeks) 147 mg/kg/day; (mouse, strain Swiss albino, females, in drinking water, site: blood vessels, lesion: angiosarcoma, dosed 112 weeks, study length 112 weeks) 165 mg/kg/day; (mouse, strain Swiss albino, females, in drinking water, site: blood vessels, lesion: several types, types named in the paper, dosed 112 weeks, study length 112 weeks) 72.1 mg/kg/day; (mouse, strain Swiss albino, females, in drinking water, site: liver, lesion: angioma, dosed 112 weeks, study length 112 weeks) 165 mg/kg/day; (mouse, strain Swiss albino, females, in drinking water, site: liver, lesion: angiosarcoma, dosed 112 weeks, study length 112 weeks) 165 mg/kg/day; (mouse, strain Swiss albino, females, in drinking water, site: liver, lesion: several types, types named in the paper, dosed 112 weeks, study length 112 weeks) 68.6 mg/kg/day. Also, the TD50 reads like this: (mouse, strain Swiss albino, males, in drinking water, site: blood vessels, lesion: several types, types named in the paper, dosed 112 weeks, study length 112 weeks) 70.6 mg/kg/day; (mouse, strain Swiss albino, males, in drinking water, site: liver, lesion: several types, types named in the paper, dosed 112 weeks, study length 112 weeks) 83.9 mg/kg/day. Moreover, the carcinogen call reads like this: (mouse, strain Swiss albino, females, in drinking water, site: lung, lesion: several types, types named in the paper, dosed 112 weeks, study length 112 weeks) “negative (inactive)”; (mouse, strain Swiss albino, males, in drinking water, site: lung, lesion: several types, types named in the paper, dosed 112 weeks, study length 112 weeks) “negative (inactive)”; (mouse, strain Swiss, females, by gavage, site: lung, lesion: one or several types, types not named, dosed 39 weeks, study length 55 weeks) “negative (inactive)”.
`CN(C)C(=O)Nc1ccc(Cl)c(Cl)c1`: the carcinogen call (mouse, strain B6AKF1, females, oral dosing, site: any site (literature study), lesion: several types, types named in the paper, dosed 76 weeks, study length 76 weeks) is “negative (inactive)”; the carcinogen call (mouse, strain B6AKF1, females, oral dosing, site: liver, lesion: hepatoma, dosed 76 weeks, study length 76 weeks) is “negative (inactive)”; the carcinogen call (mouse, strain B6AKF1, females, oral dosing, site: lung, lesion: adenoma, dosed 76 weeks, study length 76 weeks) is “negative (inactive)”; the carcinogen call (mouse, strain B6AKF1, males, oral dosing, site: liver, lesion: hepatoma, dosed 76 weeks, study length 76 weeks) is “negative (inactive)”; the carcinogen call (mouse, strain B6C3F1, females, oral dosing, site: liver, lesion: hepatoma, dosed 76 weeks, study length 76 weeks) is “negative (inactive)”. In addition, the TD50 is 260 mg/kg/day (inactive) (mouse, strain B6AKF1, males, oral dosing, site: any site (literature study), lesion: several types, types named in the paper, dosed 76 weeks, study length 76 weeks); 437 mg/kg/day (inactive) (mouse, strain B6AKF1, males, oral dosing, site: lung, lesion: adenoma, dosed 76 weeks, study length 76 weeks); 388 mg/kg/day (inactive) (mouse, strain B6C3F1, females, oral dosing, site: any site (literature study), lesion: several types, types named in the paper, dosed 76 weeks, study length 76 weeks); 600 mg/kg/day (inactive) (mouse, strain B6C3F1, females, oral dosing, site: lung, lesion: adenoma, dosed 76 weeks, study length 76 weeks); 361 mg/kg/day (inactive) (mouse, strain B6C3F1, males, oral dosing, site: any site (literature study), lesion: several types, types named in the paper, dosed 76 weeks, study length 76 weeks); 1150 mg/kg/day (inactive) (mouse, strain B6C3F1, males, oral dosing, site: liver, lesion: hepatoma, dosed 76 weeks, study length 76 weeks). Also, the TD50 (mouse, strain B6C3F1, males, oral dosing, site: lung, lesion: adenoma, dosed 76 weeks, study length 76 weeks) is 1150 mg/kg/day (inactive).
Take `CC(C)C[C@H]1C(=O)N2CCC[C@H]2[C@]2(O)O[C@](NC(=O)[C@@H]3C=C4c5cccc6[nH]c(Br)c(c56)C[C@H]4N(C)C3)(C(C)C)C(=O)N12`: the TD50 is, setting by setting: (mouse, strain OF1, females, in feed, site: any site (literature study), lesion: several types, types named in the paper, dosed 74 weeks, study length 74 weeks) 175 mg/kg/day (inactive); (mouse, strain OF1, males, in feed, site: any site (literature study), lesion: several types, types named in the paper, dosed 74 weeks, study length 74 weeks) 68 mg/kg/day (inactive); (mouse, strain OF1, males, in feed, site: liver, lesion: neoplastic nodule, dosed 74 weeks, study length 74 weeks) 308 mg/kg/day (inactive); (mouse, strain OF1, males, in feed, site: lung, lesion: adenoma, dosed 74 weeks, study length 74 weeks) 618 mg/kg/day (inactive); (rat, strain OFA (Sprague-Dawley derived), females, in feed, site: uterus, lesion: malignant tumor, dosed 100 weeks, study length 100 weeks) 117 mg/kg/day; (rat, strain OFA (Sprague-Dawley derived), females, in feed, site: uterus, lesion: several types, types named in the paper, dosed 100 weeks, study length 100 weeks) 33.7 mg/kg/day. The carcinogen call reads like this: (mouse, strain OF1, females, in feed, site: liver, lesion: neoplastic nodule, dosed 74 weeks, study length 74 weeks) “negative (inactive)”; (mouse, strain OF1, females, in feed, site: lung, lesion: adenoma, dosed 74 weeks, study length 74 weeks) “negative (inactive)”.
Regarding `COC(=O)c1ccc(C(=O)OC)cc1`, the TD50 is 4340 mg/kg/day (inactive) (mouse, strain B6C3F1, females, in feed, site: any site (literature study), lesion: several types, types named in the paper, dosed 103 weeks, study length 105 weeks); 44000 mg/kg/day (mouse, strain B6C3F1, females, in feed, site: lung, lesion: alveolar/bronchiolar adenoma + alveolar/bronchiolar carcinoma, dosed 103 weeks, study length 105 weeks); 1160 mg/kg/day (inactive) and 1160 mg/kg/day (mouse, strain B6C3F1, males, in feed, site: lung, lesion: alveolar/bronchiolar adenoma + alveolar/bronchiolar carcinoma, dosed 103 weeks, study length 104 weeks); 342 mg/kg/day (inactive) (rat, strain Fischer 344, females, in feed, site: any site (literature study), lesion: several types, types named in the paper, dosed 103 weeks, study length 105 weeks). Besides, the carcinogen call (rat, strain Fischer 344, males, in feed, site: any site (literature study), lesion: several types, types named in the paper, dosed 103 weeks, study length 105 weeks) was “negative (inactive)”.

These data come from PubChem BioAssay AID1745844 (Carcinogenic Potency Database (CPDB), 2022).
